Tested on: human PCSK9 locus
Assay: Secreted PCSK9 by ELISA in Huh7 cells transfected with mRNA and gRNA
Type: cell-based
Settings: for Secreted PCSK9 / Percent reduction in PCSK9 secretion / Average percent reduction in PCSK9 secretion: Huh7 cells; for Secreted PCSK9: 6 days post-transfection, normalized to total cell count; for Percent reduction in PCSK9 secretion / Average percent reduction in PCSK9 secretion: LTRP5-ADD-ZIM3 mRNA; for Percent reduction in PCSK9 secretion: day 6, relative to non-targeting gRNA control; for Average percent reduction in PCSK9 secretion: day 6, averaged from the two doses
Procedure: To assess PCSK9 secretion, seeded Huh7 cells were transfected with mRNA encoding a catalytically-active CasX 676, dXR1, or LTRP5-ADD-ZIM3 and a gRNA with scaffold 316 and spacer targeting either the B2M or PCSK9 locus. Media supernatant was harvested at 6, 18, 36, and 87 days post-transfection to assess level of PCSK9 secretion by ELISA. Levels of PCSK9 secretion were normalized to total cell count. As an additional control, PCSK9 secretion was also measured in the media supernatant harvested from wells containing untreated, naïve cells.
The following three human hepatocyte cancer cell lines were used in this experiment: HepG2 cells, Hep3B cells, and Huh7 cells. ˜15,000 cells of each cell line were seeded per well; the next day, seeded cells were transfected with mRNA encoding a catalytically-active CasX 676, dXR1, or LTRP5-ADD-ZIM3 and a gRNA with scaffold 316 and spacer targeting either the B2M or PCSK9 locus (see Table 23 for specific spacers and sequences). Media supernatant was harvested at 4 days post-transfection to assess level of PCSK9 secretion by ELISA, and levels of PCSK9 secretion were normalized to total cell count and illustrated in FIGS. 11A-11C. Culturing of treated Huh7 cells continued, and media supernatant was harvested at 14 and 27 days post-transfection for measuring PCSK9 secretion by ELISA. As an additional experimental control, PCSK9 secretion was also measured in the media supernatant harvested from wells containing untreated, naïve cells.
To assess PCSK9 secretion, seeded Huh7 cells were co-transfected with mRNA encoding for LTRP5-ADD-ZIM3 and a gRNA with scaffold 316 and spacer targeting the PCSK9 locus using Lipofectamine™ 3000. Two doses of total RNA input at a 2:1 mass ratio of mRNA to gRNA were used for screening: 50 ng mRNA:25 ng gRNA and 25 ng mRNA:12.5 ng gRNA. Media supernatant was harvested at 6 days post-transfection to assess level of PCSK9 secretion by ELISA (Table 74). Levels of PCSK9 secretion were normalized to total cell count. As an additional control, PCSK9 secretion was also measured in the media supernatant harvested from cells transfected with mRNA encoding for mScarlet.

[1] = LTRP5-ADD-ZIM3 mRNA + gRNA scaffold 316, 25 ng mRNA:12.5 ng gRNA
[2] = LTRP5-ADD-ZIM3 mRNA + gRNA scaffold 316, 50 ng mRNA:25 ng gRNA

## TG-06-140 (guide AAACUUAGCCUGGACCCCCU; listed as RNA, chemistry not given here)
[1]
  Secreted PCSK9: 59.94 ng/mL
[2]
  Secreted PCSK9: 61.68 ng/mL
25 ng mRNA:12.5 ng gRNA
  Percent reduction in PCSK9 secretion: 15.87%
50 ng mRNA:25 ng gRNA
  Percent reduction in PCSK9 secretion: 25.04%
  Average percent reduction in PCSK9 secretion: 20.45%

## TG-06-141 (guide ACUGGCCUUAACCUGGCAGC; listed as RNA, chemistry not given here)
Huh7, LTRP5-ADD-ZIM3 mRNA + gRNA scaffold 316 v1, 6 days post-transfection, averaged from two doses, relative to non-targeting gRNA
  average reduction in secreted PCSK9 levels: 82.75%
[1]
  Secreted PCSK9: 12.58 ng/mL
[2]
  Secreted PCSK9: 13.86 ng/mL
25 ng mRNA:12.5 ng gRNA
  Percent reduction in PCSK9 secretion: 82.34%
50 ng mRNA:25 ng gRNA
  Percent reduction in PCSK9 secretion: 83.16%
  Average percent reduction in PCSK9 secretion: 82.75%

## TG-06-142 (guide UUCCACUGGCCUUAACCUGG; listed as RNA, chemistry not given here)
[1]
  Secreted PCSK9: 27.27 ng/mL
[2]
  Secreted PCSK9: 30.87 ng/mL
25 ng mRNA:12.5 ng gRNA
  Percent reduction in PCSK9 secretion: 61.73%
50 ng mRNA:25 ng gRNA
  Percent reduction in PCSK9 secretion: 62.48%
  Average percent reduction in PCSK9 secretion: 62.1%

## TG-06-143 (guide GAAUCAAUCCUACUGUGGAC; listed as RNA, chemistry not given here)
[1]
  Secreted PCSK9: 22.33 ng/mL
[2]
  Secreted PCSK9: 38.69 ng/mL
25 ng mRNA:12.5 ng gRNA
  Percent reduction in PCSK9 secretion: 68.66%
50 ng mRNA:25 ng gRNA
  Percent reduction in PCSK9 secretion: 52.97%
  Average percent reduction in PCSK9 secretion: 60.81%

## TG-06-144 (guide GUGGGCAGCGAGGAGUCCAC; listed as RNA, chemistry not given here)
[1]
  Secreted PCSK9: 29 ng/mL
[2]
  Secreted PCSK9: 23.42 ng/mL
25 ng mRNA:12.5 ng gRNA
  Percent reduction in PCSK9 secretion: 59.29%
50 ng mRNA:25 ng gRNA
  Percent reduction in PCSK9 secretion: 71.53%
  Average percent reduction in PCSK9 secretion: 65.41%

## TG-06-145 (guide UGGGUCCACCUUGUCUCCUG; listed as RNA, chemistry not given here)
[1]
  Secreted PCSK9: 18.54 ng/mL
[2]
  Secreted PCSK9: 15.8 ng/mL
25 ng mRNA:12.5 ng gRNA
  Percent reduction in PCSK9 secretion: 73.98%
50 ng mRNA:25 ng gRNA
  Percent reduction in PCSK9 secretion: 80.8%
  Average percent reduction in PCSK9 secretion: 77.39%

## TG-06-146 (guide GAAGUCUCACUGGUCAGCAG; listed as RNA, chemistry not given here)
[1]
  Secreted PCSK9: 20.34 ng/mL
[2]
  Secreted PCSK9: 40.84 ng/mL
25 ng mRNA:12.5 ng gRNA
  Percent reduction in PCSK9 secretion: 71.45%
50 ng mRNA:25 ng gRNA
  Percent reduction in PCSK9 secretion: 50.36%
  Average percent reduction in PCSK9 secretion: 60.9%

## TG-06-147 (guide GUGUUUCCUGGGUCCACCUU; listed as RNA, chemistry not given here)
[1]
  Secreted PCSK9: 37.43 ng/mL
[2]
  Secreted PCSK9: 53.6 ng/mL
25 ng mRNA:12.5 ng gRNA
  Percent reduction in PCSK9 secretion: 47.46%
50 ng mRNA:25 ng gRNA
  Percent reduction in PCSK9 secretion: 34.85%
  Average percent reduction in PCSK9 secretion: 41.15%

## TG-06-148 (guide GCCGGGCCCACCUUUUCAGU; listed as RNA, chemistry not given here)
[1]
  Secreted PCSK9: 44.77 ng/mL
[2]
  Secreted PCSK9: 71.46 ng/mL
25 ng mRNA:12.5 ng gRNA
  Percent reduction in PCSK9 secretion: 37.16%
50 ng mRNA:25 ng gRNA
  Percent reduction in PCSK9 secretion: 13.15%
  Average percent reduction in PCSK9 secretion: 25.15%

## TG-06-149 (guide AGCCCAGUUAGGAUUUGGGA; listed as RNA, chemistry not given here)
[1]
  Secreted PCSK9: 38.33 ng/mL
[2]
  Secreted PCSK9: 21.18 ng/mL
25 ng mRNA:12.5 ng gRNA
  Percent reduction in PCSK9 secretion: 46.21%
50 ng mRNA:25 ng gRNA
  Percent reduction in PCSK9 secretion: 74.26%
  Average percent reduction in PCSK9 secretion: 60.23%

## TG-06-150 (guide UCCCUCUGCGCGUAAUCUGA; listed as RNA, chemistry not given here)
[1]
  Secreted PCSK9: 39.59 ng/mL
[2]
  Secreted PCSK9: 18.33 ng/mL
25 ng mRNA:12.5 ng gRNA
  Percent reduction in PCSK9 secretion: 44.42%
50 ng mRNA:25 ng gRNA
  Percent reduction in PCSK9 secretion: 77.73%
  Average percent reduction in PCSK9 secretion: 61.08%

## TG-06-151 (guide CUCUGCGCGUAAUCUGACGC; listed as RNA, chemistry not given here)
[1]
  Secreted PCSK9: 66.42 ng/mL
[2]
  Secreted PCSK9: 53.44 ng/mL
25 ng mRNA:12.5 ng gRNA
  Percent reduction in PCSK9 secretion: 6.77%
50 ng mRNA:25 ng gRNA
  Percent reduction in PCSK9 secretion: 35.05%
  Average percent reduction in PCSK9 secretion: 20.91%

## TG-06-152 (guide GCCUCGCCCUCCCCAAACAG; listed as RNA, chemistry not given here)
[1]
  Secreted PCSK9: 57.43 ng/mL
[2]
  Secreted PCSK9: 36.95 ng/mL
25 ng mRNA:12.5 ng gRNA
  Percent reduction in PCSK9 secretion: 19.39%
50 ng mRNA:25 ng gRNA
  Percent reduction in PCSK9 secretion: 55.09%
  Average percent reduction in PCSK9 secretion: 37.24%

## TG-06-153 (guide GUUAAUGUUUAAUCAGAUAG; listed as RNA, chemistry not given here)
[1]
  Secreted PCSK9: 86.58 ng/mL
[2]
  Secreted PCSK9: 73.23 ng/mL
25 ng mRNA:12.5 ng gRNA
  Percent reduction in PCSK9 secretion: 21.52%
50 ng mRNA:25 ng gRNA
  Percent reduction in PCSK9 secretion: 10.99%
  Average percent reduction in PCSK9 secretion: 5.27%

## TG-06-155 (guide GCAGCGACGUCGAGGCGCUC; listed as RNA, chemistry not given here)
[1]
  Secreted PCSK9: 56.36 ng/mL
[2]
  Secreted PCSK9: 29.45 ng/mL
25 ng mRNA:12.5 ng gRNA
  Percent reduction in PCSK9 secretion: 20.89%
50 ng mRNA:25 ng gRNA
  Percent reduction in PCSK9 secretion: 64.21%
  Average percent reduction in PCSK9 secretion: 42.55%

## TG-06-158 (guide GGAGCAGGGCGCGUGAAGGG; listed as RNA, chemistry not given here)
[1]
  Secreted PCSK9: 31.72 ng/mL
[2]
  Secreted PCSK9: 9.39 ng/mL
25 ng mRNA:12.5 ng gRNA
  Percent reduction in PCSK9 secretion: 55.48%
50 ng mRNA:25 ng gRNA
  Percent reduction in PCSK9 secretion: 88.59%
  Average percent reduction in PCSK9 secretion: 72.03%

## TG-06-159 (guide GCGCGCCCCUUCACGCGCCC; listed as RNA, chemistry not given here)
[1]
  Secreted PCSK9: 80.84 ng/mL
[2]
  Secreted PCSK9: 53.15 ng/mL
25 ng mRNA:12.5 ng gRNA
  Percent reduction in PCSK9 secretion: 13.47%
50 ng mRNA:25 ng gRNA
  Percent reduction in PCSK9 secretion: 35.4%
  Average percent reduction in PCSK9 secretion: 10.97%

## TG-06-160 (guide CGCGCCCUGCUCCUGAACUU; listed as RNA, chemistry not given here)
[1]
  Secreted PCSK9: 48.67 ng/mL
[2]
  Secreted PCSK9: 20.63 ng/mL
25 ng mRNA:12.5 ng gRNA
  Percent reduction in PCSK9 secretion: 31.69%
50 ng mRNA:25 ng gRNA
  Percent reduction in PCSK9 secretion: 74.93%
  Average percent reduction in PCSK9 secretion: 53.31%

## TG-06-161 (guide GCUCCUGCACAGUCCUCCCC; listed as RNA, chemistry not given here)
[1]
  Secreted PCSK9: 53.16 ng/mL
[2]
  Secreted PCSK9: 29.55 ng/mL
25 ng mRNA:12.5 ng gRNA
  Percent reduction in PCSK9 secretion: 25.38%
50 ng mRNA:25 ng gRNA
  Percent reduction in PCSK9 secretion: 64.08%
  Average percent reduction in PCSK9 secretion: 44.73%

## TG-06-168 (guide GUGGGAAGGUUCGCGGGGUU; listed as RNA, chemistry not given here)
[1]
  Secreted PCSK9: 50.96 ng/mL
[2]
  Secreted PCSK9: 19.1 ng/mL
25 ng mRNA:12.5 ng gRNA
  Percent reduction in PCSK9 secretion: 28.47%
50 ng mRNA:25 ng gRNA
  Percent reduction in PCSK9 secretion: 76.78%
  Average percent reduction in PCSK9 secretion: 52.62%
